According to patent US9989531B2, “Composition comprising a cell sample from a subject with scoliosis and a reagent for detecting PTPμ or PIPK1y” (Chu Sainte-Justine, priority 2013, dated 2018):

Assays:
[1] = tested on: α2 adrenergic receptor (α2-ADR); experiment: GiPCR signaling by cellular dielectric spectroscopy (CDS), oxymethazolin stimulation of osteoblasts; type: cell-based, mouse; settings: osteoblasts from bipedal WT and PTPμ−/− mice, different concentrations (FIG. 3)
Protocol: (§1) The signaling capacity of G proteins was assessed from osteoblast cultures using cellular dielectric spectroscopy (CDS) performed on a CellKey™ apparatus (MDS Sciex, San Francisco, Calif.), as described in Akoume, et al., 2010 and WO 2010/040234, 2010 to Moreau et al. To assess GiPCR cell signaling, specific agonists that bind to GiPCR and regulate Gi proteins were used: Apelin-17, Oxymethazolin and Somatostatin (Som) (Tocris Bioscience, Canada).
To examine the impact of PTPμ deficiency on this defect, osteoblasts from bipedal WT and PTPμ^−/− mice were screened for their response to three GiPCR selective agonists identified in (FIG. 2). In agreement with previous results (Akoume et al Spine 2010), all three compounds evoked typical CDS response profiles of GiPCR in WT osteoblasts. Consistent with Gi coupling for their cognate receptors in these cells, response to each of the three tested compounds was blocked by pre-treatment with PTX (FIGS. 2 A-F). Similar results were obtained with PTPμ^−/− osteoblasts (FIGS. 2 G-L). […] However, in each case, osteoblasts from PTPμ^−/− mice were less responsive than those from WT mice, but EC50 values were similar in both groups (FIGS. 3 A-C).

Apelin receptor (APJR) = biological target: T1, Apelin receptor (APJR) (Mus musculus, UniProt Q9WV08); experiment: GiPCR signaling by cellular dielectric spectroscopy (CDS), apelin-17 stimulation of osteoblasts; type: cell-based; settings: osteoblasts from bipedal WT and PTPμ−/− mice, different concentrations (FIG. 3)
T1 construct: The signaling capacity of G proteins was assessed from osteoblast cultures using cellular dielectric spectroscopy (CDS); endogenous in cells; host or cells: primary spine osteoblasts from bipedal C57Bl/6j WT and PTPμ-/- mice
T1 sequence (Q9WV08 1-377): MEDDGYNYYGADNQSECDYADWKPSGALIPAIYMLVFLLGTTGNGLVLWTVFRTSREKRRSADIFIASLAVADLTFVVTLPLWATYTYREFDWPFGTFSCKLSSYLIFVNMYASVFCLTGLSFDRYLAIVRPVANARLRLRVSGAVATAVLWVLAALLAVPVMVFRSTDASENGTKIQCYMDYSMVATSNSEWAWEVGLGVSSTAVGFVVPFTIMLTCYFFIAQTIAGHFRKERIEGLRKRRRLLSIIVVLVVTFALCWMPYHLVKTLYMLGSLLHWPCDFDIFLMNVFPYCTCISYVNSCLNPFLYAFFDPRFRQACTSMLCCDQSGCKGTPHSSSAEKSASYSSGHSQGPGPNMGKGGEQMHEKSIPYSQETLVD

OPN = biological target: T2, OPN (Mus musculus, UniProt P10923); experiment: OPN knockdown by siRNA in osteoblasts, response to GiPCR stimulation (CDS); type: cell-based; settings: WT and PTPμ−/− osteoblasts (FIGS. 3 F-H)
T2 construct: endogenous in cells; host or cells: primary spine osteoblasts from bipedal C57Bl/6j WT and PTPμ-/- mice, transfected with OPN siRNA
Protocol: as §1
(§2) Primary osteoblast cell cultures from C57BI/6j WT and C57B/6j PTPμ^−/− were cultured (as described above). Lipofectamine™ RNAiMAX (Invitrogen) was applied for siRNA transfection according to the manufacturer's instructions. The sequence of RNA oligo used for the knockdown of OPN is ([…] (SEQ ID NO: 25)). The cells were harvested for RNA extraction after 48 hrs. The same procedure was followed for phosphatidylinositol-phosphate kinase type I gamma (PIPK1γ). The sequence of RNA oligo used for the knockdown of PIPK1γ is ([…] (SEQ ID NO: 26)).
To relate these findings to the OPN action, the small interference RNA (siRNA) approach was used to knockdown the expression of OPN in WT and PTPμ^−/− osteoblasts.

G αi proteins = experiment: Pertussis toxin pre-treatment of osteoblasts before GiPCR agonist stimulation (CDS); type: cell-based, mouse; settings: osteoblasts from bipedal WT and PTPμ−/− mice; agonists oxymethazolin, somatostatin, apelin-17 (FIG. 2)
Excerpt: Furthermore, Pertussis toxin (PTX) (Sigma Aldrich, Canada) was used to determine if the effect of the agonists was related to G αi proteins.

GiPCR signaling = experiment: Exogenous recombinant OPN treatment of osteoblasts prior to GiPCR stimulation (CDS); type: cell-based, mouse; settings: WT and PTPμ−/− osteoblasts, varying concentrations of rOPN (FIGS. 4 A-C)
Protocol: as §1
WT and PTPμ^−/− osteoblasts were treated with varying concentrations of exogenous recombinant OPN (rOPN) prior to GiPCR stimulation with agonists identified in FIGS. 4 A-C.

PIPK1γ = biological target: T3, PIPK1γ (Mus musculus, UniProt O70161); experiment: PIPK1γ knockdown by siRNA in osteoblasts, response to somatostatin stimulation (CDS); type: cell-based; settings: varying concentrations of somatostatin, vs scrb (FIG. 6H)
T3 construct: endogenous in cells; host or cells: primary spine osteoblasts from bipedal C57Bl/6j WT and PTPμ-/- mice
Protocol: as §1, §2
To further assess the implication of PIPK1γ in the mechanism of action behind PTPμ deficiency, a SiRNA approach was used to knockdown the expression of PIPK1γ in WT and PTPμ^−/− osteoblasts prior to initiating GiPCR signaling with somatostatin stimulation. Efficiency of siRNA in WT and PTPμ^−/− osteoblasts was confirmed by qPCR and Western blot analysis (FIGS. 6 B and C). […]

T3 sequence (O70161 whole entry): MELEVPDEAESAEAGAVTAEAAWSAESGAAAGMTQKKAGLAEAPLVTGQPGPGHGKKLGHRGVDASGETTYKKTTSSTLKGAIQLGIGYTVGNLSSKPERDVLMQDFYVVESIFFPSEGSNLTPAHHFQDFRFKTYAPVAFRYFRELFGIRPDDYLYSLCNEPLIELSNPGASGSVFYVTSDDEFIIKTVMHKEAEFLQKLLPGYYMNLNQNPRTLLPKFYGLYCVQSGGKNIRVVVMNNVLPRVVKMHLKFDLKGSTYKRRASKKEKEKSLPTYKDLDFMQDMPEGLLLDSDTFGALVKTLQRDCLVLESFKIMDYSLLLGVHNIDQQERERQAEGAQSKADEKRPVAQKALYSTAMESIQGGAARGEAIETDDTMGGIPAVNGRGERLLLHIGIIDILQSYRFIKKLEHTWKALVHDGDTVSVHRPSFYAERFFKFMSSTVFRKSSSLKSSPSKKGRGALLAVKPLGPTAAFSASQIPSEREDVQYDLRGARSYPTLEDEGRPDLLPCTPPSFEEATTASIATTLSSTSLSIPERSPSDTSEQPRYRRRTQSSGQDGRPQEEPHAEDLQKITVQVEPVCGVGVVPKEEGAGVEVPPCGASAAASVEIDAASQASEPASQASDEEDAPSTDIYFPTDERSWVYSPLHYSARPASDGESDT
T2 sequence (P10923 17-294): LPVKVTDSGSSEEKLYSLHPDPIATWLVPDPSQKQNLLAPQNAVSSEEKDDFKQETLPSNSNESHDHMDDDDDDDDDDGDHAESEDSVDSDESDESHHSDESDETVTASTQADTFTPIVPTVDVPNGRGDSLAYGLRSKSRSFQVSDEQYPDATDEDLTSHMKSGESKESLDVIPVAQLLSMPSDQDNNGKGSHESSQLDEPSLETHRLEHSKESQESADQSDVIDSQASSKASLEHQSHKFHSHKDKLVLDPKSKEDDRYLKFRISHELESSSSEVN

## Cc1cc(C(C)(C)C)c(O)c(C)c1CC1=NCCN1 [oxymethazoin, Oxymethazolin]
[1]
  CDS response to agonist: increased response in a concentration-dependent manner

## Apelin-17
Apelin receptor (APJR)
  CDS response to agonist: increased response in a concentration-dependent manner

## OPN siRNA: RNA oligo used for the knockdown of OPN: CCACAGCCACAAGCAGUCCAGAUUA (SEQ ID NO: 25) (CCACAGCCACAAGCAGUCCAGAUUA; listed as RNA, chemistry not given here)
OPN
  response to GiPCR stimulation after deletion of OPN: enhanced response to GiPCR stimulation

## Pertussis toxin [PTX]
G αi proteins
  effect of pre-treatment on Gi coupling of agonists to their cognate receptors: blocked the Gi coupling

## rOPN: exogenous recombinant OPN (osteopontin)
GiPCR signaling
  integrated response to GiPCR stimulation: decrease in the integrated response in a concentration-dependent manner

## siPIPK1: RNA oligo used for the knockdown of PIPK1γ: CCUCCACAUCGGGAUUGAUAUU (SEQ ID NO: 26) (CCUCCACAUCGGGAUUGAUAUU; listed as RNA, chemistry not given here)
PIPK1γ; WT osteoblasts
  response to somatostatin stimulation after depletion of PIPK1γ: same response
PIPK1γ; osteoblasts from PTPμ deficiency mice
  response to somatostatin stimulation after depletion of PIPK1γ: enhanced response to somatostatin stimulation
